Assay results published in patent US4288595A, “7-(Substituted)-7H-pyrrolo[3,2-f]quinazoline-1,3-diamines” (priority 1980, dated 1981).
In brackets after ≈: the same amount, converted by molar mass. Where two headings read alike, the source gives them in different places.

How the values were obtained:
P. vulgaris 6896 = experiment: In vitro antibacterial activity, MIC by agar dilution; type: cell-based; conditions: Proteus vulgaris, Wellcotest Sensitivity Test Agar, 5% hemolyzed horse blood, 18 hours at 35° C.
Description: (§1) A stock solution or suspension of the test compound at a concentration of 2500 μg/ml. is prepared utilizing a suitable solvent or medium such as aqueous sodium hydroxide, aqueous lactic acid, methyl cellosolve, dimethylsulfoxide, dimethylacetamide, ethylene glycol, dimethylformamide, formamide, propylene glycol, acetone or methanol. Two-fold dilutions are made by adding appropriate amounts of sterile water to the solution or suspension of the test substance. One ml. quantities of each dilution are incorporated into Wellcotest Sensitivity Test Agar fortified with 5% hemolyzed horse blood (9 ml. vol.) in sterile Petri dishes to give plates containing varying concentrations of the test compound. The hardened surfaces of each plate are incubated with the test organism, and the plates are incubated for 18 hours at 35° C.

K. pneumoniae 10031 = experiment: as above; type: cell-based; conditions: read-out: MIC, K. pneumoniae 10031
Description: as §1

N. catarrhalis 8193 = experiment: as above; type: cell-based; conditions: Wellcotest Sensitivity Test Agar, 5% hemolyzed horse blood, 18 hours at 35° C.
Description: as §1

E. coli 9637 = experiment: as above; type: cell-based; conditions: read-out: MIC, E. coli 9637
Description: as §1

S. aureus 53-180 = experiment: as above; type: cell-based; conditions: Staphylococcus aureus, 53180; Wellcotest Sensitivity Test Agar, 5% hemolyzed horse blood, 18 hours at 35° C.
Description: as §1

S. aureus Smith = experiment: as above; type: cell-based; conditions: Staphylococcus aureus; Wellcotest Sensitivity Test Agar, 5% hemolyzed horse blood, 18 hours at 35° C.
Description: as §1

S. paratyphi 11737 = experiment: as above; type: cell-based; conditions: Salmonella enterica, read-out: MIC, S. paratyphi 11737
Description: as §1

[1] = system: Plasmodium berghei KBG 173; experiment: Blood schizonticidal antimalarial test in mice infected with Plasmodium berghei; conditions: for minimal effective dose / ED100: Plasmodium berghei, in Mus musculus, sc; for minimal effective dose: read-out: Min. Curing Dose; for ΔMST (increase in mean survival time of treated animals to untreated controls): s.c.; for ED100: read-out: Lowest Dose Curing All Mice
Description: (§2) Test animals weigh from 18 to 22 grams but weight variations in any given experimental or control group are confined to 2-3 grams. All animals in any given test are approximately of the same age. Animals on test are housed in metal-topped plastic cages, given a standard laboratory diet and water ad libitum.
(§3) Test animals receive an intraperitoneal injection of 0.5 ml. of 1:100 dilution of heparinized heart's blood with a minimum of 90% parasitized cells (4×10^7 cells), drawn from donor mice infected one week earlier with Plasmodium berghei. The donor strain is maintained by weekly passages in separate groups of mice inoculated with a 0.5 ml. of 1:500 dilution of heparinized heart's blood.
(§4) Test compounds are administered after dissolution or suspension in peanut oil. A single dose is given subcutaneously 72 hours after the mice are infected with Plasmodium berghei. […] Since treatment is withheld for three days to permit the infection to become well established and death occurs in untreated controls within 6-8 days, it is felt that this system presents a candidate compound with the maximum challenge. In order to check factors such as changes in the infectivity of Plasmodium berghei or in the susceptibility of the host or to detect technical errors, a group of infected animals treated with pyrimethamine at dose levels producing definite increases in survival time is included in a positive control in every experiment.
(§5) In each experiment test compounds are administered in graded dosages. […] Deaths prior to the sixth day, when untreated controls begin to die, are regarded as nonparasitic and become the basis for toxicity evaluations. Treated animals are kept under observation for 60 days. Survivors at the end of this period of time are considered as cured. In calculating mean survival time, toxic deaths and 60-day survivors are not included.

[2] = as above; conditions: mouse, in vivo, sc
Description: as §2, §3, §4, §5

[3] = Klebsiella pneumoniae, 10031, Wellcotest Sensitivity Test Agar, 5% hemolyzed horse blood, 18 hours at 35° C.
[4] = Escherichia coli, 9637, Wellcotest Sensitivity Test Agar, 5% hemolyzed horse blood, 18 hours at 35° C.
[5] = Wellcotest Sensitivity Test Agar, 5% hemolyzed horse blood, 18 hours at 35° C.

SMILES | MIC (P. vulgaris 6896) [µg/mL] | MIC (K. pneumoniae 10031; [3]) [µg/mL] | MIC (N. catarrhalis 8193) [µg/mL] | MIC (E. coli 9637; [4]) [µg/mL] | MIC (S. aureus 53-180) [µg/mL] | MIC (S. aureus Smith) [µg/mL] | MIC (S. paratyphi 11737; [5]) [µg/mL] | minimal effective dose ([1]; 1440 h) [mg/kg] | ΔMST (increase in mean survival time of treated animals to untreated controls) ([1]; dose 10 mg. per kg.) | MTD at 1440 h [2] [mg/kg] | ED100 ([1]; 1440 h) [mg/kg] | ΔMST (increase in mean survival time of treated animals to untreated controls) ([1]; dose 5 mg. per kg.) | MIC (K. pneumoniae 10031; Klebsiella pneumoniae, 10031, 18 h) [µg/mL] | MIC (E. coli 9637; Escherichia coli, 9637, 18 h) [µg/mL] | ED100 ([1]; 336 h) [mg/kg] | minimal effective dose ([1]; 336 h) [mg/kg] | ΔMST (increase in mean survival time of treated animals to untreated controls) ([1]; dose 160 mg. per kg.) | MIC (S. paratyphi 11737; 18 h) [µg/mL] | ΔMST (increase in mean survival time of treated animals to untreated controls) ([1]; dose 20 mg. per kg.)
Nc1nc(N)c2c(ccc3c2ccn3S(=O)(=O)c2ccc3ccccc3c2)n1 [Example 4] | > 250 | > 250 | 15.6 (≈ 40.1 µM) | > 250 | 250 (≈ 642 µM) | 250 (≈ 642 µM) | > 250 | 20 | 11.4 |  |  |  |  |  |  |  |  |  | 
CC(C)(C)c1ccc(S(=O)(=O)n2ccc3c4c(N)nc(N)nc4ccc32)cc1 [Example 12] | > 250 | 1.95 (≈ 4.93 µM) |  | 250 (≈ 632 µM) | 3.9 (≈ 9.86 µM) | 7.81 (≈ 19.7 µM) | > 250 | 20 | 6.5 | 640 | 40 |  |  |  |  |  |  |  | 
CC(=O)Nc1ccc(S(=O)(=O)n2ccc3c4c(N)nc(N)nc4ccc32)cc1 [Example 11] | > 250 | 7.81 (≈ 19.7 µM) |  | > 250 | 31.3 (≈ 79 µM) | 31.3 (≈ 79 µM) | > 250 | 10 |  | 320 | 20 | 9.3 |  |  |  |  |  |  | 
Cc1ccc(C)c(S(=O)(=O)n2ccc3c4c(N)nc(N)nc4ccc32)c1 [Example 2, 7-[(2,5-Dimethylphenyl)Sulfonyl]-7H-Pyrrolo-[3,2-f]Quinazoline-1,3-Diamine] | 62.5 (≈ 170 µM) |  |  |  | 0.976 (≈ 2.66 µM) | 7.81 (≈ 21.3 µM) | 31.3 (≈ 85.2 µM) | 20 |  | 160 | 40 | 6.6 | 31.3 (≈ 85.2 µM) | 31.3 (≈ 85.2 µM) |  |  |  |  | 
Nc1nc(N)c2c(ccc3c2ccn3S(=O)(=O)c2cccc(C(F)(F)F)c2)n1 [Example 9] | > 250 | 3.9 (≈ 9.57 µM) |  | > 250 | 0.976 (≈ 2.4 µM) | 3.9 (≈ 9.57 µM) | > 250 | 10 |  | 160 | 40 | 6.6 |  |  |  |  |  |  | 
Nc1nc(N)c2c(ccc3c2ccn3S(=O)(=O)c2ccc(Cl)cc2)n1 [Example 8] | > 250 | 7.81 (≈ 20.9 µM) | 0.244 (≈ 0.653 µM) | > 250 | 15.6 (≈ 41.7 µM) | 62.5 (≈ 167 µM) | > 250 |  |  | 160 |  |  |  |  | 40 | 40 |  |  | 
Nc1nc(N)c2c(ccc3c2ccn3S(=O)(=O)c2ccc([N+](=O)[O-])cc2)n1 [Example 3] | > 250 | 3.9 (≈ 10.1 µM) | 0.12 (≈ 0.312 µM) | 7.81 (≈ 20.3 µM) | 3.9 (≈ 10.1 µM) | 7.81 (≈ 20.3 µM) | > 250 | 640 |  |  |  |  |  |  |  |  | 8.4 |  | 
COc1ccc(S(=O)(=O)n2ccc3c4c(N)nc(N)nc4ccc32)cc1 [Example 6] | > 250 | 3.9 (≈ 10.6 µM) | 0.122 (≈ 0.33 µM) | > 250 | 7.81 (≈ 21.1 µM) | 15.6 (≈ 42.2 µM) | > 250 | 40 |  | 640 | 160 |  |  |  |  |  |  |  | 
Cc1ccc(S(=O)(=O)n2ccc3c4c(N)nc(N)nc4ccc32)cc1 [Example 5] | > 250 | 15.6 (≈ 44.1 µM) | 1.95 (≈ 5.52 µM) | > 250 | 62.5 (≈ 177 µM) | 125 (≈ 354 µM) | > 250 | 20 | 5.8 | 640 | 80 |  |  |  |  |  |  |  | 
Nc1nc(N)c2c(ccc3c2ccn3S(=O)(=O)c2ccc(Cl)c(Cl)c2)n1 [Example 7] | > 250 | 3.13 (≈ 7.67 µM) | 0.122 (≈ 0.299 µM) | > 250 | 3.9 (≈ 9.55 µM) | 31.3 (≈ 76.7 µM) |  |  |  | 640 |  |  |  |  | 10 | 1.25 |  | > 250 | 
Nc1nc(N)c2c(ccc3c2ccn3S(=O)(=O)c2ccccc2)n1 [Example 10] | 125 (≈ 368 µM) | 0.488 (≈ 1.44 µM) |  | 3.9 (≈ 11.5 µM) | 0.976 (≈ 2.88 µM) | 1.95 (≈ 5.75 µM) | 15.6 (≈ 46 µM) | 40 |  |  |  |  |  |  |  |  |  |  | 7.2
